Laboratory results from PubChem BioAssay AID1918991 (Molecular Pharmacology Branch, DTP, NCI, 2023).
Blank lines part the entries; values can stand above or below the compound they belong to.

Tested on: 186277-243-T-J2-PDC complex spheroid growth
Experiment: Anticancer human tumor 186277-243-T-J2-PDC patient-derived colon adenocarcinoma cell line growth inhibition [AhR]
Conditions: for IC50: curve of first compound; for viability, T/C: stronger effect = lower value
Source text: Multicellular complex tumor spheroid response to aryl hydrocarbon receptor antagonists in combination with a variety of drugs and investigational agents in selected tumor cell lines
The current study was undertaken to assess response to aryl hydrocarbon receptor antagonists in combination with standard-of-care drugs and investigational agents in solid tumor complex spheroid models. Complex spheroids include a stromal component modeled by human endothelial cells (HUVEC) and fibroblasts modeled by human mesenchymal stem cells (MSCs). The concentration ranges selected for each drug and investigational agent were based upon clinically achievable concentrations if the clinical Cmax of the agent was known.
Compounds. The drugs and investigational agents: BAY 2416964 (NSC825713), GNF351 (NSC835774), CH-223191 (NSC835775), CPI-455 (NSC825282), aza-TdCyd (NSC777586), decitabine (NSC127716), belinostat (NSC758774), entinostat (NSC756642), pevonedistat (NSC761192), tazemetostat (NSC777109), talazoparib (NSC765396), olaparib (NSC753686), selinexor (NSC780203), nedisertib (M3814, NSC802822), bortezomib (NSC756655), venetoclax (NSC766270), doxorubicin (NSC123127), elimusertib (BAY189344, NSC800525), ceralasertib (AZD6738, NSC777638), TAK-243 (NSC785004), alisertib (NSC759677), etoposide (NSC141540), topotecan (NSC609699), eribulin (NSC707389), gemcitabine (NSC613327), carboplatin (NSC241240), cisplatin (NSC119875), and SN-38 (NSC673596) were obtained from the National Cancer Institute (NCI) Developmental Therapeutics Program Chemical Repository (32). The FDA-approved anticancer drug set is available from the Developmental Therapeutics Program at https://dtp.cancer.gov/organization/dscb/obtaining/available plates.htm. […] The stock solutions were prepared in dimethyl sulfoxide (DMSO, Sigma-Aldrich, St. Louis, MO, cat. D2650), except for the platinum compounds which were prepared in saline (Quality Biological, Gaithersburg, MD, cat. 114-055-101), at 800-fold the tested concentration and stored at -70 degrees C prior to their use. All drugs and investigational agents were tested over a range starting from a high concentration at or near the clinical Cmax and decreasing in half-log increments. If the clinical Cmax for an agent had not been determined, the highest concentration tested was 10 microM (Table 1).
Cell Culture. All cells were maintained in an incubator at 37 degrees C and 5% CO2 with 95% humidity. The PDC lines were cultured according to standard operating procedures established by the NCI PDMR (https://pdmr.cancer.gov). Briefly, all PDCs were thawed and cultured in Matrigel-coated flasks prepared with a working solution of 1X Ham's F-12 nutrient mix, without supplementation (Invitrogen, Waltham, MA, cat. 11765054), 100 U/mL penicillin-streptomycin (Invitrogen, cat. 15140122), and 2.5% Matrigel (Corning Inc., Corning, NY, cat. 354248) for the first three passages. All PDCs were cultured in complete DMEM/F-12 media containing advanced DMEM/F-12 (Invitrogen, cat. 12634028), 4.9% defined fetal bovine serum, heat inactivated (HyClone Laboratories Inc., Logan, UT, cat. SH30070.03HI), 389 ng/mL hydrocortisone (Sigma-Aldrich, cat. H4001), 9.7 ng/mL human EGF recombinant protein (Invitrogen, cat. PHG0313), 23.4 microg/mL adenine (Sigma-Aldrich, cat. A2786), 97.3 U/mL penicillin-streptomycin (Invitrogen, cat. 15140122), 1.9 mM L-glutamine (Invitrogen, cat. 25030081), and 9.7 microM Y-27632 dihydrochloride (Tocris Bioscience, Bristol, United Kingdom, cat. 1254). The PDCs were cultured in complete DMEM/F12 media without 10 microM Y-27632 dihydrochloride for at least two passages prior to the screen. The established cell lines NCI-H1341 and […] were cultured in DMEM/F-12, HEPES (Invitrogen, cat. 11330032), 5% defined fetal bovine serum (HyClone Laboratories Inc., cat. SH30070.03), ITS premix universal culture supplement [insulin (5 microg/mL), transferrin (5 microg/mL), and selenious acid (5 ng/mL)] […]

[1] = second compound 0.1 µM, first compound 0.0316 µM
[2] = second compound 0.1 µM, first compound 0.1 µM
[3] = second compound 0.1 µM, first compound 0.316 µM
[4] = second compound 0.1 µM, first compound 1 µM
[5] = second compound 0.1 µM, first compound 3.16 µM
[6] = second compound 0.1 µM, first compound 10 µM
[7] = second compound 0.316 µM, first compound 0.0316 µM
[8] = second compound 0.316 µM, first compound 0.1 µM
[9] = second compound 0.316 µM, first compound 0.316 µM
[10] = second compound 0.316 µM, first compound 1 µM
[11] = second compound 0.316 µM, first compound 3.16 µM
[12] = second compound 0.316 µM, first compound 10 µM
[13] = second compound 1 µM, first compound 0.0316 µM
[14] = second compound 1 µM, first compound 0.1 µM
[15] = second compound 1 µM, first compound 0.316 µM
[16] = second compound 1 µM, first compound 1 µM
[17] = second compound 1 µM, first compound 3.16 µM
[18] = second compound 1 µM, first compound 10 µM
[19] = second compound 3.16 µM, first compound 0.0316 µM
[20] = second compound 3.16 µM, first compound 0.1 µM
[21] = second compound 3.16 µM, first compound 0.316 µM
[22] = second compound 3.16 µM, first compound 1 µM
[23] = second compound 3.16 µM, first compound 3.16 µM
[24] = second compound 3.16 µM, first compound 10 µM
[25] = second compound 10 µM, first compound 0.0316 µM
[26] = second compound 10 µM, first compound 0.1 µM
[27] = second compound 10 µM, first compound 0.316 µM
[28] = second compound 10 µM, first compound 1 µM
[29] = second compound 10 µM, first compound 3.16 µM
[30] = second compound 10 µM, first compound 10 µM
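Further: spheroids exposed to compounds for seven days before the viability read.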
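Wherever viability, T/C is given: luminescent signal used as a stand-in for viable cell amount; 100% = DMSO vehicle control wells.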

IC50 (second compound 0.1 µM): < 0.949 nM
IC50 (second compound 0.316 µM): < 0.949 nM
IC50 (second compound 1 µM): < 0.949 nM
IC50 (second compound 3.16 µM): < 0.949 nM
IC50 (second compound 10 µM): < 0.949 nM
Compound: CCc1c2c(nc3ccc(O)cc13)-c1cc3c(c(=O)n1C2)COC(=O)[C@]3(O)CC + CC(CO)NC(=O)c1cc(-c2ccc(Cl)cc2)nn(-c2cnn(C)c2)c1=O
viability, T/C (second compound 0.1 µM, first compound 0.000949 µM): 38.7%
viability, T/C (second compound 0.1 µM, first compound 0.003 µM): 30.1%
viability, T/C (second compound 0.1 µM, first compound 0.00949 µM): 22.8%
viability, T/C (second compound 0.1 µM, first compound 0.03 µM): 16.7%
viability, T/C (second compound 0.1 µM, first compound 0.0949 µM): 10.3%
viability, T/C (second compound 0.1 µM, first compound 0.3 µM): 6.69%
viability, T/C (second compound 0.316 µM, first compound 0.000949 µM): 38.5%
viability, T/C (second compound 0.316 µM, first compound 0.003 µM): 27.1%
viability, T/C (second compound 0.316 µM, first compound 0.00949 µM): 21.9%
viability, T/C (second compound 0.316 µM, first compound 0.03 µM): 15.6%
viability, T/C (second compound 0.316 µM, first compound 0.0949 µM): 8.35%
viability, T/C (second compound 0.316 µM, first compound 0.3 µM): 5.97%
viability, T/C (second compound 1 µM, first compound 0.000949 µM): 37.8%
viability, T/C (second compound 1 µM, first compound 0.003 µM): 28.9%
viability, T/C (second compound 1 µM, first compound 0.00949 µM): 24.8%
viability, T/C (second compound 1 µM, first compound 0.03 µM): 16.4%
viability, T/C (second compound 1 µM, first compound 0.0949 µM): 8.38%
viability, T/C (second compound 1 µM, first compound 0.3 µM): 6.06%
viability, T/C (second compound 3.16 µM, first compound 0.000949 µM): 31.3%
viability, T/C (second compound 3.16 µM, first compound 0.003 µM): 25.4%
viability, T/C (second compound 3.16 µM, first compound 0.00949 µM): 24.5%
viability, T/C (second compound 3.16 µM, first compound 0.03 µM): 15.3%
viability, T/C (second compound 3.16 µM, first compound 0.0949 µM): 9.33%
viability, T/C (second compound 3.16 µM, first compound 0.3 µM): 6.42%
viability, T/C (second compound 10 µM, first compound 0.000949 µM): 27.5%
viability, T/C (second compound 10 µM, first compound 0.003 µM): 25.6%
viability, T/C (second compound 10 µM, first compound 0.00949 µM): 22.6%
viability, T/C (second compound 10 µM, first compound 0.03 µM): 15.4%
viability, T/C (second compound 10 µM, first compound 0.0949 µM): 8.39%
viability, T/C (second compound 10 µM, first compound 0.3 µM): 6.77%

IC50 (second compound 0.1 µM): 560 nM
IC50 (second compound 0.316 µM): 486 nM
IC50 (second compound 1 µM): 496 nM
IC50 (second compound 3.16 µM): 447 nM
IC50 (second compound 10 µM): 211 nM
Compound: Nc1ccccc1NC(=O)c1ccc(CNC(=O)OCc2cccnc2)cc1 + CC(CO)NC(=O)c1cc(-c2ccc(Cl)cc2)nn(-c2cnn(C)c2)c1=O
viability, T/C [1]: 89%
viability, T/C [2]: 95.2%
viability, T/C [3]: 67.4%
viability, T/C [4]: 30.2%
viability, T/C [5]: 10.7%
viability, T/C [6]: 0.66%
viability, T/C [7]: 84.3%
viability, T/C [8]: 87.1%
viability, T/C [9]: 57.2%
viability, T/C [10]: 32.9%
viability, T/C [11]: 8.17%
viability, T/C [12]: 0.43%
viability, T/C [13]: 93%
viability, T/C [14]: 94.7%
viability, T/C [15]: 61.8%
viability, T/C [16]: 28.1%
viability, T/C [17]: 8.39%
viability, T/C [18]: 0.38%
viability, T/C [19]: 83.7%
viability, T/C [20]: 79.7%
viability, T/C [21]: 62.2%
viability, T/C [22]: 22.2%
viability, T/C [23]: 7.6%
viability, T/C [24]: 0.3%
viability, T/C [25]: 70.3%
viability, T/C [26]: 68.8%
viability, T/C [27]: 39.2%
viability, T/C [28]: 16.6%
viability, T/C [29]: 7.12%
viability, T/C [30]: 0.32%

IC50 (second compound 0.1 µM): 6180 nM
IC50 (second compound 0.316 µM): 6460 nM
IC50 (second compound 1 µM): 8510 nM
IC50 (second compound 3.16 µM): 7340 nM
IC50 (second compound 10 µM): 4640 nM
Compound: O=C(c1cc(Cc2n[nH]c(=O)c3ccccc23)ccc1F)N1CCN(C(=O)C2CC2)CC1 + CC(CO)NC(=O)c1cc(-c2ccc(Cl)cc2)nn(-c2cnn(C)c2)c1=O
viability, T/C [1]: 99.2%
viability, T/C [2]: 108%
viability, T/C [3]: 102%
viability, T/C [4]: 90.3%
viability, T/C [5]: 69.9%
viability, T/C [6]: 36.1%
viability, T/C [7]: 96.3%
viability, T/C [8]: 97.2%
viability, T/C [9]: 100%
viability, T/C [10]: 88.5%
viability, T/C [11]: 74.9%
viability, T/C [12]: 35.1%
viability, T/C [13]: 104%
viability, T/C [14]: 95.3%
viability, T/C [15]: 98%
viability, T/C [16]: 93.7%
viability, T/C [17]: 71.6%
viability, T/C [18]: 46.5%
viability, T/C [19]: 98.1%
viability, T/C [20]: 93.2%
viability, T/C [21]: 87.9%
viability, T/C [22]: 90.9%
viability, T/C [23]: 71.9%
viability, T/C [24]: 41.7%
viability, T/C [25]: 80%
viability, T/C [26]: 86.3%
viability, T/C [27]: 88.5%
viability, T/C [28]: 69.2%
viability, T/C [29]: 58.4%
viability, T/C [30]: 36.5%
